Data on 14 compounds can be found in patent US20240208992A1, “MACROCYCLES AS CFTR MODULATORS” (Idorsia Pharmaceuticals Ltd, priority 2021, published 2024).

For this assay, the target named is human F508del-CFTR (Homo sapiens, UniProt P13569, DEL508-508). Briefly: F508del-CFTR cell surface expression (corrector activity), DiscoveRx ß-galactosidase complementation chemiluminescence assay in recombinant U2OS cell line.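 As to all read-outs here: U2OS cells co-expressing ProLink-tagged F508del-CFTR and a membrane-anchored enzyme acceptor, where more surface CFTR restores β-galactosidase activity measured by chemiluminescence.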 The note with it: for EC50: EC50, F508del-CFTR cell surface expression, U2OS cells, 16h compound incubation, geomean values; for Emax: U2OS, in relation to Emax of corrector lumacaftor (=100%), arithmetic mean values.
Chain of human F508del-CFTR (P13569 with tags, fused parts or gaps DEL508-508): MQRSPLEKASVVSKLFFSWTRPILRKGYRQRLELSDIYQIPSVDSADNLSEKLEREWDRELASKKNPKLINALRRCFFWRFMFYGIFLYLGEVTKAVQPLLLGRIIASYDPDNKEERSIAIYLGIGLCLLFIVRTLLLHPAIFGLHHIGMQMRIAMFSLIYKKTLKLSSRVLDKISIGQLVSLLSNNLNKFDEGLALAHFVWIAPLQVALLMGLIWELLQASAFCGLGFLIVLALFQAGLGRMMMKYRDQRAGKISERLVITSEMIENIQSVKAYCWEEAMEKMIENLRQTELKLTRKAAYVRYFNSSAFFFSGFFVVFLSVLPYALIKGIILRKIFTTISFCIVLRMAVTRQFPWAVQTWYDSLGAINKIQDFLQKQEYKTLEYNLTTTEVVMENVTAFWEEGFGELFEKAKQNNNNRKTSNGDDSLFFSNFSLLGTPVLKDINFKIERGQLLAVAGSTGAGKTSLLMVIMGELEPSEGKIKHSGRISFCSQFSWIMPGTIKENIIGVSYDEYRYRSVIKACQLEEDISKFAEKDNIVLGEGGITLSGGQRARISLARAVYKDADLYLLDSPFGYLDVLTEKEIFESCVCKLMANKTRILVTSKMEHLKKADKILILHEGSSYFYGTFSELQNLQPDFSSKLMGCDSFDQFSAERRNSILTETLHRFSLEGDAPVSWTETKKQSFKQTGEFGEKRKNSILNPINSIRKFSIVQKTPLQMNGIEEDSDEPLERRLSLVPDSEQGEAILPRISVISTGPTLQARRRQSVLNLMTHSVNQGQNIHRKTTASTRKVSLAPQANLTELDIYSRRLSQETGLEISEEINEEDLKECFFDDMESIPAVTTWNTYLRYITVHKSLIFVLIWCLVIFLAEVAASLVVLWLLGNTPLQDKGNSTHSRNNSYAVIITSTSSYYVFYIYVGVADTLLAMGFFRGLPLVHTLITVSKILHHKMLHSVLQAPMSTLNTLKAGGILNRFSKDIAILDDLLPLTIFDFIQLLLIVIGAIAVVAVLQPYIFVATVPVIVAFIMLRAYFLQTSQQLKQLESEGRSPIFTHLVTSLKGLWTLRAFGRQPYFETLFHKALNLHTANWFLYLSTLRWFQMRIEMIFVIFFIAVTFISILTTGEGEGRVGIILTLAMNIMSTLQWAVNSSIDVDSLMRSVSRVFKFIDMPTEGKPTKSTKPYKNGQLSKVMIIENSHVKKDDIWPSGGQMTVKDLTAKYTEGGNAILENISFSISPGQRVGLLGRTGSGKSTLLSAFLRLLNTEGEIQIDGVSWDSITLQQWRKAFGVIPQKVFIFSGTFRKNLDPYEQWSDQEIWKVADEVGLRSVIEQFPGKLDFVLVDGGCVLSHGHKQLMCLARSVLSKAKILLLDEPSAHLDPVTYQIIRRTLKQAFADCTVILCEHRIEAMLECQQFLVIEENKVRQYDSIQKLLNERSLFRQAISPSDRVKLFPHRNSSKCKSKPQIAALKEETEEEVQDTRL

As a reminder, the EC50 is the concentration that produces a half-maximal response. Broadly, the Emax is the size of the effect at its maximum, as opposed to the concentration needed. Turning to `COc1nccc2c1C(=O)N[C@H](C(=O)NCCc1cc(C3CC3)no1)CC(=O)N(C)[C@@H](CC(C)C)C(=O)N1CCC(F)(F)C[C@@H]1C(=O)N[C@H](Cc1ccccc1)CO2` [Example 663, (7S,11S,17aR,20R)-20-benzyl-N-(2-(3-cyclopropylisoxazol-5-yl)ethyl)-16,16-difluoro-11-isobutyl-4-methoxy-10-methyl-5,9,12,18-tetraoxo-5,6,7,8,9,10,11,12,15,16,17,17a,18,19,20,21-hexadecahydro-14H-dipyrido[2,1-f:3′,4′-p][1]oxa[4,7,10,14]tetraazacycloheptadecine-7-carboxamide], the EC50 amounted to 801 nM and the Emax amounted to 210%.

Take `[2H]C([2H])([2H])Oc1nc(C)cc2c1C(=O)N[C@H](C(=O)NCCc1cc(C3CC3)on1)CC(=O)N(C)[C@@H](CC(C)C)C(=O)N1CCCC[C@@H]1C(=O)N[C@H](Cc1ccccc1)CO2` [Example 664, (7S,11S,17aR,20R)-20-benzyl-N-(2-(5-cyclopropylisoxazol-3-yl)ethyl)-11-isobutyl-4-(methoxy-d3)-2,10-dimethyl-5,9,12,18-tetraoxo-5,6,7,8,9,10,11,12,15,16,17,17a,18,19,20,21-hexadecahydro-14H-dipyrido[2,1-f:3′,4′-p][1]oxa[4,7,10,14]tetraazacycloheptadecine-7-carboxamide]: the 50% effective concentration (EC50) was found to be 231 nM and the Emax came out at 291%.

Consider `CC(C)C[C@H]1C(=O)N2CCCC[C@@H]2C(=O)N[C@H](Cc2ccccc2)COc2cnc3ccc(F)cc3c2C(=O)N[C@H](C(=O)NCCc2cnn(C3CC3)n2)CC(=O)N1C` [Example 665, (9S,13S,19aR,22R)-22-benzyl-N-(2-(2-cyclopropyl-2H-1,2,3-triazol-4-yl)ethyl)-5-fluoro-13-isobutyl-12-methyl-7,11,14,20-tetraoxo-7,8,9,10,11,12,13,14,17,18,19,19a,20,21,22,23-hexadecahydro-16H-pyrido[2′,1′:6,7][1]oxa[4,7,10,14]tetraazacycloheptadecino[17,16-c]quinoline-9-carboxamide], for which the EC50 amounted to 119 nM and the Emax worked out at 323%.

Regarding `[2H]C([2H])([2H])Oc1nc(C)cc2c1C(=O)N[C@H](C(=O)NCCc1noc(C3CC3)n1)CC(=O)N(C)[C@@H](CC(C)C)C(=O)N1CCCC[C@@H]1C(=O)N[C@H](Cc1ccccc1)CO2` [Example 666, (7S,11S,17aR,20R)-20-benzyl-N-(2-(5-cyclopropyl-1,2,4-oxadiazol-3-yl)ethyl)-11-isobutyl-4-(methoxy-d3)-2,10-dimethyl-5,9,12,18-tetraoxo-5,6,7,8,9,10,11,12,15,16,17,17a,18,19,20,21-hexadecahydro-14H-dipyrido[2,1-f:3′,4′-p][1]oxa[4,7,10,14]tetraazacycloheptadecine-7-carboxamide], the EC50 came out at 484 nM and the Emax was 311%.

For `COc1nc(C)cc2c1C(=O)N[C@H](C(=O)NCCc1cc(C(F)(F)F)no1)CC(=O)N(C)[C@@H](CC(C)C)C(=O)N1CCCC[C@H]1C(=O)N[C@H](Cc1ccccc1)CO2` [Example 667, (7S,11S,17aS,20R)-20-benzyl-11-isobutyl-4-methoxy-2,10-dimethyl-5,9,12,18-tetraoxo-N-(2-(3-(trifluoromethyl)isoxazol-5-yl)ethyl)-5,6,7,8,9,10,11,12,15,16,17,17a,18,19,20,21-hexadecahydro-14H-dipyrido[2,1-f:3′,4′-p][1]oxa[4,7,10,14]tetraazacycloheptadecine-7-carboxamide], the EC50 stood at 764 nM and the Emax was determined as 149%.

Regarding `COc1nccc2c1C(=O)N[C@H](C(=O)NCCc1cc(C3CC3)no1)CC(=O)N(C)[C@@H](CC(C)C)C(=O)N1CCC3(CC3)C[C@@H]1C(=O)N[C@H](Cc1ccccc1)CO2` [Example 668, (7′S,11′S,17a′R,20′R)-20′-benzyl-N-(2-(3-cyclopropylisoxazol-5-yl)ethyl)-11′-isobutyl-4′-methoxy-10′-methyl-5′,9′,12′,18′-tetraoxo-5′,6′,7′,8′,9′,10′,11′,12′,14′,15′,17′,17a′,18′,19′,20′,21′-hexadecahydrospiro[cyclopropane-1,16′-dipyrido[2,1-f:3′,4′-p][1]oxa[4,7,10,14]tetraazacycloheptadecine]-7′-carboxamide], the EC50 stood at 160 nM and the Emax is 330%.

For the compound `COc1nccc2c1C(=O)N[C@H](C(=O)NCCc1cc(C3CC3)no1)CC(=O)N(C)[C@@H](CC(C)C)C(=O)N1CC[C@H](c3ccccc3)C[C@H]1C(=O)N[C@H](Cc1ccccc1)CO2` [Example 670, (7S,11S,17aS,20R)-20-benzyl-N-(2-(3-cyclopropylisoxazol-5-yl)ethyl)-11-isobutyl-4-methoxy-10-methyl-5,9,12,18-tetraoxo-16-phenyl-5,6,7,8,9,10,11,12,15,16,17,17a,18,19,20,21-hexadecahydro-14H-dipyrido[2,1-f:3′,4′-p][1]oxa[4,7,10,14]tetraazacycloheptadecine-7-carboxamide], the EC50 came to 353 nM and the Emax was found to be 167%.

For `COc1nccc2c1C(=O)N[C@H](C(=O)NCCc1cc(C3CC3)no1)CC(=O)N(C)[C@@H](CC(C)C)C(=O)N1CC[C@@H](c3ccccc3)C[C@@H]1C(=O)N[C@H](Cc1ccccc1)CO2` [Example 672, (7S,11S,17aR,20R)-20-benzyl-N-(2-(3-cyclopropylisoxazol-5-yl)ethyl)-11-isobutyl-4-methoxy-10-methyl-5,9,12,18-tetraoxo-16-phenyl-5,6,7,8,9,10,11,12,15,16,17,17a,18,19,20,21-hexadecahydro-14H-dipyrido[2,1-f:3′,4′-p][1]oxa[4,7,10,14]tetraazacycloheptadecine-7-carboxamide], the EC50 stood at 103 nM and the Emax came out at 312%.

Regarding `COc1nccc2c1C(=O)N[C@H](C(=O)NCCc1cc(C3CC3)no1)CC(=O)N(C)[C@@H](CC(C)C)C(=O)N1CC[C@H](c3ccccc3)C[C@@H]1C(=O)N[C@H](Cc1ccccc1)CO2` [Example 673, (7S,11S,17aR,20R)-20-benzyl-N-(2-(3-cyclopropylisoxazol-5-yl)ethyl)-11-isobutyl-4-methoxy-10-methyl-5,9,12,18-tetraoxo-16-phenyl-5,6,7,8,9,10,11,12,15,16,17,17a,18,19,20,21-hexadecahydro-14H-dipyrido[2,1-f:3′,4′-p][1]oxa[4,7,10,14]tetraazacycloheptadecine-7-carboxamide], the half-maximal effective concentration (EC50) is 67 nM and the Emax is 314%.

Regarding `CC(C)C[C@H]1C(=O)N2CC[C@@H](c3ccccc3)C[C@H]2C(=O)N[C@H](Cc2ccccc2)COc2cnc3ccccc3c2C(=O)N[C@H](C(=O)NCCc2cc(C3CC3)no2)CC(=O)N1C` [Example 675, (9S,13S,19aS,22R)-22-benzyl-N-(2-(3-cyclopropylisoxazol-5-yl)ethyl)-13-isobutyl-12-methyl-7,11,14,20-tetraoxo-18-phenyl-7,8,9,10,11,12,13,14,17,18,19,19a,20,21,22,23-hexadecahydro-16H-pyrido[2′,1′:6,7][1]oxa[4,7,10,14]tetraazacycloheptadecino[17,16-c]quinoline-9-carboxamide], the EC50 is 194 nM and the Emax turned out to be 159%.

Regarding `CC(C)C[C@H]1C(=O)N2CC[C@@H](c3ccccc3)C[C@@H]2C(=O)N[C@H](Cc2ccccc2)COc2cnc3ccccc3c2C(=O)N[C@H](C(=O)NCCc2cc(C3CC3)no2)CC(=O)N1C` [Example 676, (9S,13S,19aR,22R)-22-benzyl-N-(2-(3-cyclopropylisoxazol-5-yl)ethyl)-13-isobutyl-12-methyl-7,11,14,20-tetraoxo-18-phenyl-7,8,9,10,11,12,13,14,17,18,19,19a,20,21,22,23-hexadecahydro-16H-pyrido[2′,11:6,7][1]oxa[4,7,10,14]tetraazacycloheptadecino[17,16-c]quinoline-9-carboxamide], the EC50 was 62 nM and the Emax is 267%.

`CC(C)C[C@H]1C(=O)N2CC[C@H](c3ccccc3)C[C@@H]2C(=O)N[C@H](Cc2ccccc2)COc2cnc3ccccc3c2C(=O)N[C@H](C(=O)NCCc2cc(C3CC3)no2)CC(=O)N1C` [Example 677, (9S,13S,19aR,22R)-22-benzyl-N-(2-(3-cyclopropylisoxazol-5-yl)ethyl)-13-isobutyl-12-methyl-7,11,14,20-tetraoxo-18-phenyl-7,8,9,10,11,12,13,14,17,18,19,19a,20,21,22,23-hexadecahydro-16H-pyrido[2′,1′:6,7][1]oxa[4,7,10,14]tetraazacycloheptadecino[17,16-c]quinoline-9-carboxamide]: the EC50 is 37 nM and the Emax was 283%.

Consider `COc1nccc2c1C(=O)N[C@H](C(=O)NCCc1cc(C)no1)CC(=O)N(C)[C@@H](CC(C)C)C(=O)N1Cc3ccccc3C[C@@H]1C(=O)N[C@H](Cc1ccccc1)CO2` [Example 678, (7S,11S,19aR,22R)-22-benzyl-11-isobutyl-4-methoxy-10-methyl-N-(2-(3-methylisoxazol-5-yl)ethyl)-5,9,12,20-tetraoxo-5,6,7,8,9,10,11,12,19,19a,20,21,22,23-tetradecahydro-14H-pyrido[3′,4′:16,17][1]oxa[4,7,10,14]tetraazacycloheptadecino[7,6-b]isoquinoline-7-carboxamide], for which the EC50 was found to be 355 nM and the Emax worked out at 296%.

For the compound `COc1nccc2c1C(=O)N[C@H](C(=O)NCCc1cc(C)no1)CC(=O)N(C)[C@@H](CC(C)C)C(=O)N1CCc3ccccc3[C@@H]1C(=O)N[C@H](Cc1ccccc1)CO2` [Example 679, (7S,11S,19bR,22R)-22-benzyl-11-isobutyl-4-methoxy-10-methyl-N-(2-(3-methylisoxazol-5-yl)ethyl)-5,9,12,20-tetraoxo-5,6,7,8,9,10,11,12,15,19b,20,21,22,23-tetradecahydro-14H-pyrido[3′,4′:16,17][1]oxa[4,7,10,14]tetraazacycloheptadecino[6,7-a]isoquinoline-7-carboxamide], the EC50 was determined as 869 nM and the Emax is 277%.
